Measurements as given in US20260372303A1, “5-Fluoro-4-Imino-3-Methyl-1-Tosyl-3, 4-Dihydropyrimidin-2(1H) -One for Fungicide-Resistant Fungus” (priority 2022, published 2026).

Tests used:
Type in all cases: in vivo
[1] = system: Zymoseptoria tritici strain Zt 38-02; test: In planta preventive efficacy on wheat cv. Alixan against Zymoseptoria tritici strain Zt 38-02; details: for Disease Severity Intensity: % of length of 2nd leaf blade, preventive 24 h; for AUDPC: control 1261.4
Method: (§1) A series of experiments were conducted to evaluate the efficacy of flumetylsulforim (ADF-16) for treating different strains of Zymoseptoria tritici in comparison with commercially available fungicides. Table 1 describes the Z. tritici strains used in this study and Table 2 describes the fungicides used in this study.
(§2) Winter wheat plants cv. Alixan (Limagrain) at the BBCH 12 growth stage were treated preventively with sterile distilled water (control), ADF-16, penthiopyrad, metconazole or tebuconazole at the rates described in Table 2 with a hand sprayer at 2 bars.
(§3) After treatment, wheat plants were left to dry at room temperature for 1 hour and then placed in a climatic chamber: temperature of 24 °C day/18 °C night-photoperiod of 16 h light/8 h dark and a relative humidity of 65%.
(§4) Untreated or treated whole wheat plants were inoculated 24-hours post-treatment with a calibrated pycnospore suspension of Z. tritici strains Zt StA, Zt 61, Zt 99, Zt 20, Zt 19-52, and Zt 38-02. Three replicates (pots) of 6 wheat plants each were used for each condition tested.
(§5) After inoculation, pots were transferred in a climatic chamber: temperature of 20 °C day/17 °C night—photoperiod of 16 h light/8 h dark and controlled relative humidity.
(§6) Disease assessments were carried out at 15 days post inoculation (dpi), 21 dpi and 28 dpi by measuring the length of the necrosis on the second leaf blade. The intensity of infection was then determined as a percentage of the total length of 2nd leaf blade.
(§7) The fungicide efficacies were determined from the Area Under the Disease Progress Curve (AUDPC) values and expressed as a percentage of the untreated control.
(§8) The AUDPC is a quantitative measure of disease intensity over time. The most commonly used method for estimating the AUDPC, the trapezoidal method, is performed by multiplying the average disease intensity between each pair of adjacent timepoints by the corresponding time interval and this for each time interval. The AUDPC is determined with the following formula by adding all of the trapezoids:
(§9) [formula] • yi=disease severity at the ith observation • ti=time (days) at the ith observation • N=total number of observations

[2] = system: Zymoseptoria tritici strain Zt 61; test: In planta preventive efficacy on wheat cv. Alixan against Zymoseptoria tritici strain Zt 61; design: fungicide efficacy: concentration or dose not given beside the values; details: for Disease Severity Intensity: % of length of 2nd leaf blade, preventive 24 h; for AUDPC: control 1194.9
Method: as §1, §2, §3, §4, §5, §6, §7, §8, §9

[3] = system: Zymoseptoria tritici strain Zt 20; test: In planta preventive efficacy on wheat cv. Alixan against Zymoseptoria tritici strain Zt 20; details: % of length of 2nd leaf blade, preventive 24 h
Method: as §1, §2, §3, §4, §5, §6, §7, §8, §9

[4] = system: Zymoseptoria tritici strain Zt 19-52; test: In planta preventive efficacy on wheat cv. Alixan against Zymoseptoria tritici strain Zt 19-52; details: % of length of 2nd leaf blade, preventive 24 h
Method: as §1, §2, §3, §4, §5, §6, §7, §8, §9

[5] = system: Zymoseptoria tritici strain Zt StA; test: In planta preventive efficacy on wheat cv. Alixan against Zymoseptoria tritici strain Zt StA (control strain, sensitive); details: for Disease Severity Intensity: % of length of 2nd leaf blade, preventive 24 h; for AUDPC: control 781.6
Method: as §1, §2, §3, §4, §5, §6, §7, §8, §9

[6] = system: Zymoseptoria tritici strain Zt 99; test: In planta preventive efficacy on wheat cv. Alixan against Zymoseptoria tritici strain Zt 99; details: for Disease Severity Intensity: % of length of 2nd leaf blade, preventive 24 h; for AUDPC: control 1352.9
Method: as §1, §2, §3, §4, §5, §6, §7, §8, §9

[7] = rate N (g a.i./ha): ADF-16 100, penthiopyrad 200, metconazole 90, tebuconazole 250
[8] = rate N/2.5 (g a.i./ha): ADF-16 40, penthiopyrad 80, metconazole 36, tebuconazole 100
[9] = 15 dpi, rate N (g a.i./ha): ADF-16 100, penthiopyrad 200, metconazole 90, tebuconazole 250, control also no disease
[10] = 15 dpi, rate N/2.5 (g a.i./ha): ADF-16 40, penthiopyrad 80, metconazole 36, tebuconazole 100, control also no disease

## CC(C)(C)C(O)(CCc1ccc(Cl)cc1)Cn1cncn1 (stereo not drawn) [Tebuconazole]
[1]; 15 dpi, rate N (g a.i./ha): ADF-16 100, penthiopyrad 200, metconazole 90, tebuconazole 250, control 36.0
  Disease Severity Intensity: 0.0 +/− 0.0b %
[1]; 15 dpi, rate N/2.5 (g a.i./ha): ADF-16 40, penthiopyrad 80, metconazole 36, tebuconazole 100, control 36.0
  Disease Severity Intensity: 0.0 +/− 0.0b %
[1]; 21 dpi, rate N (g a.i./ha): ADF-16 100, penthiopyrad 200, metconazole 90, tebuconazole 250, control 84.3
  Disease Severity Intensity: 9.3 +/− 1.9e %
[1]; 21 dpi, rate N/2.5 (g a.i./ha): ADF-16 40, penthiopyrad 80, metconazole 36, tebuconazole 100, control 84.3
  Disease Severity Intensity: 62.2 +/− 4.5bc %
[1]; 28 dpi, rate N (g a.i./ha): ADF-16 100, penthiopyrad 200, metconazole 90, tebuconazole 250, control 95.7
  Disease Severity Intensity: 45.1 +/− 4.0d %
[1]; 28 dpi, rate N/2.5 (g a.i./ha): ADF-16 40, penthiopyrad 80, metconazole 36, tebuconazole 100, control 95.7
  Disease Severity Intensity: 93.3 +/− 0.9ab %
[1]; [7]
  Efficacy (from AUDPC, percentage of the untreated control): 82.7%
  AUDPC: 218.1 ± 3.5 days
[1]; [8]
  Efficacy (from AUDPC, percentage of the untreated control): 42.3%
  AUDPC: 728.1 +/− 31.6b
[2]; [9]
  Disease Severity Intensity: No disease
[2]; [10]
  Disease Severity Intensity: No disease
[2]; 21 dpi, rate N (g a.i./ha): ADF-16 100, penthiopyrad 200, metconazole 90, tebuconazole 250, control 63.3
  Disease Severity Intensity: 1.5 +/− 0.9d %
[2]; 21 dpi, rate N/2.5 (g a.i./ha): ADF-16 40, penthiopyrad 80, metconazole 36, tebuconazole 100, control 63.3
  Disease Severity Intensity: 11.8 +/− 3.6c %
[2]; 28 dpi, rate N (g a.i./ha): ADF-16 100, penthiopyrad 200, metconazole 90, tebuconazole 250, control 88.1
  Disease Severity Intensity: 30.7 +/− 5.3d %
[2]; 28 dpi, rate N/2.5 (g a.i./ha): ADF-16 40, penthiopyrad 80, metconazole 36, tebuconazole 100, control 88.1
  Disease Severity Intensity: 54.3 +/− 6.2c %
[2]; higher application rates (N)
  fungicide efficacy: ≥ 85%
[2]; lower application rates (N/2.5)
  fungicide efficacy: ≤ 70%
[2]; [7]
  Efficacy (from AUDPC, percentage of the untreated control): 89.5%
  AUDPC: 125.1 ± 46.8 days
[2]; [8]
  Efficacy (from AUDPC, percentage of the untreated control): 70.3%
  AUDPC: 354.9 +/− 103.8bc
[3]; [9]
  Disease Severity Intensity: No disease
[3]; [10]
  Disease Severity Intensity: No disease
[3]; 21 dpi, rate N (g a.i./ha): ADF-16 100, penthiopyrad 200, metconazole 90, tebuconazole 250, control 77.2
  Disease Severity Intensity: 0.6 +/− 0.5de %
[3]; 21 dpi, rate N/2.5 (g a.i./ha): ADF-16 40, penthiopyrad 80, metconazole 36, tebuconazole 100, control 77.2
  Disease Severity Intensity: 4.6 +/− 1.3c %
[3]; 28 dpi, rate N (g a.i./ha): ADF-16 100, penthiopyrad 200, metconazole 90, tebuconazole 250, control 95.5
  Disease Severity Intensity: 17.1 +/− 1.9e %
[3]; 28 dpi, rate N/2.5 (g a.i./ha): ADF-16 40, penthiopyrad 80, metconazole 36, tebuconazole 100, control 95.5
  Disease Severity Intensity: 54.8 +/− 3.7c %
[4]; 15 dpi, rate N (g a.i./ha): ADF-16 100, penthiopyrad 200, metconazole 90, tebuconazole 250, control 22.0
  Disease Severity Intensity: 0.0 +/− 0.0b %
[4]; 15 dpi, rate N/2.5 (g a.i./ha): ADF-16 40, penthiopyrad 80, metconazole 36, tebuconazole 100, control 22.0
  Disease Severity Intensity: 0.0 +/− 0.0b %
[4]; 21 dpi, rate N (g a.i./ha): ADF-16 100, penthiopyrad 200, metconazole 90, tebuconazole 250, control 81.7
  Disease Severity Intensity: 0.2 +/− 0.2c %
[4]; 21 dpi, rate N/2.5 (g a.i./ha): ADF-16 40, penthiopyrad 80, metconazole 36, tebuconazole 100, control 81.7
  Disease Severity Intensity: 0.7 +/− 0.4bc %
[4]; 28 dpi, rate N (g a.i./ha): ADF-16 100, penthiopyrad 200, metconazole 90, tebuconazole 250, control 91.0
  Disease Severity Intensity: 7.9 +/− 2.2cd %
[4]; 28 dpi, rate N/2.5 (g a.i./ha): ADF-16 40, penthiopyrad 80, metconazole 36, tebuconazole 100, control 91.0
  Disease Severity Intensity: 13.1 +/− 2.3c %
[5]; [9]
  Disease Severity Intensity: No disease
[5]; [10]
  Disease Severity Intensity: No disease
[5]; 21 dpi, rate N (g a.i./ha): ADF-16 100, penthiopyrad 200, metconazole 90, tebuconazole 250, control 36.5
  Disease Severity Intensity: 0.0 +/− 0.0b %
[5]; 21 dpi, rate N/2.5 (g a.i./ha): ADF-16 40, penthiopyrad 80, metconazole 36, tebuconazole 100, control 36.5
  Disease Severity Intensity: 0.0 +/− 0.0b %
[5]; 28 dpi, rate N (g a.i./ha): ADF-16 100, penthiopyrad 200, metconazole 90, tebuconazole 250, control 77.4
  Disease Severity Intensity: 0.0 +/− 0.0b %
[5]; 28 dpi, rate N/2.5 (g a.i./ha): ADF-16 40, penthiopyrad 80, metconazole 36, tebuconazole 100, control 77.4
  Disease Severity Intensity: 0.0 +/− 0.0b %
[5]; [7]
  Efficacy (from AUDPC, percentage of the untreated control): 100%
  AUDPC: 0.0 +/− 0.0b
[5]; [8]
  Efficacy (from AUDPC, percentage of the untreated control): 100%
  AUDPC: 0.0 +/− 0.0b
[6]; 15 dpi, rate N (g a.i./ha): ADF-16 100, penthiopyrad 200, metconazole 90, tebuconazole 250, control 47.9
  Disease Severity Intensity: 0.0 +/− 0.0d %
[6]; 15 dpi, rate N/2.5 (g a.i./ha): ADF-16 40, penthiopyrad 80, metconazole 36, tebuconazole 100, control 47.9
  Disease Severity Intensity: 0.0 +/− 0.0d %
[6]; 21 dpi, rate N (g a.i./ha): ADF-16 100, penthiopyrad 200, metconazole 90, tebuconazole 250, control 81.0
  Disease Severity Intensity: 1.5 +/− 0.8f %
[6]; 21 dpi, rate N/2.5 (g a.i./ha): ADF-16 40, penthiopyrad 80, metconazole 36, tebuconazole 100, control 81.0
  Disease Severity Intensity: 12.1 +/− 1.7e %
[6]; 28 dpi, rate N (g a.i./ha): ADF-16 100, penthiopyrad 200, metconazole 90, tebuconazole 250, control 92.2
  Disease Severity Intensity: 12.8 +/− 2.5d %
[6]; 28 dpi, rate N/2.5 (g a.i./ha): ADF-16 40, penthiopyrad 80, metconazole 36, tebuconazole 100, control 92.2
  Disease Severity Intensity: 58.7 +/− 4.6c %
[6]; [7]
  Efficacy (from AUDPC, percentage of the untreated control): 96.0%
  AUDPC: 54.0 ± 3.3 g
[6]; [8]
  Efficacy (from AUDPC, percentage of the untreated control): 79.0%
  AUDPC: 283.9 +/− 30.0f^
